The compounds below were run against human OATP1B3 transporter (Homo sapiens (Human), UniProt Q9NPD5) (assay: Transporter mediated cellular uptake, OATP1B3-expressing HEK293). Details: HEK293 stably expressing human OATP1B3, 37° C., 5 minutes.
Type: in vitro ADME
Procedure: (§1) Transporter Mediated Cellular Uptake
(§2) To determine transporter mediated cellular uptake of compounds, HEK293 stably expressing either human OATP1B1 or human OATP1B3 transporter, or mock transfected cells were cultured at 37° C. in an atmosphere of 95:5 air:CO2 DMEM/F12 medium containing 10% FBS, 100 unit/mL penicillin-G and 100 μg/mL streptomycin. Transporter expressing cell culture medium also contained 500 μg/mL G418 disulfate solution. Cells were plated onto 24-well poly-D-lysine coated culture plates at the density 5×10^5 cells/well 24 hours prior to uptake assay. Compound stock solutions were made at 1000× final concentration in 100% DMSO. Final compound solutions were prepared by diluting stock solutions into HBSS buffer (pH 7.4) On the day of the uptake assay cell culture media was removed and cells were washed twice with 300 μL of HBSS buffer (pH 7.4). Cellular uptake of compound into the cells was measured by adding 300 μL of final compound solutions in HBSS and incubating them at 37° C. for 0.5 minutes (OATP1B1) or 5 minutes (OATP1B3). Reactions were quenched by removing the buffer containing the TA and the cells were washed twice with 300 μL of HBSS buffer. Cells were lysed by adding 300 μL of MeOH:H2O (2:1) and incubated for 20 minutes at 4° C. The amount of compound in the cell lysate was determined by LC-MS/MS. The amount of protein in each well was quantified using the BCA kit for protein determination and used to normalize compound uptake (Sigma-Aldrich, St Louis, Mo., USA). • Uptake of the probe substrate in control cells provided background activity values for all data points. • Incubation with probe substrate (solvent only) provided 100% activity values. • A reference positive control was used for each transporter

Sequence of human OATP1B3 transporter (Q9NPD5 whole entry): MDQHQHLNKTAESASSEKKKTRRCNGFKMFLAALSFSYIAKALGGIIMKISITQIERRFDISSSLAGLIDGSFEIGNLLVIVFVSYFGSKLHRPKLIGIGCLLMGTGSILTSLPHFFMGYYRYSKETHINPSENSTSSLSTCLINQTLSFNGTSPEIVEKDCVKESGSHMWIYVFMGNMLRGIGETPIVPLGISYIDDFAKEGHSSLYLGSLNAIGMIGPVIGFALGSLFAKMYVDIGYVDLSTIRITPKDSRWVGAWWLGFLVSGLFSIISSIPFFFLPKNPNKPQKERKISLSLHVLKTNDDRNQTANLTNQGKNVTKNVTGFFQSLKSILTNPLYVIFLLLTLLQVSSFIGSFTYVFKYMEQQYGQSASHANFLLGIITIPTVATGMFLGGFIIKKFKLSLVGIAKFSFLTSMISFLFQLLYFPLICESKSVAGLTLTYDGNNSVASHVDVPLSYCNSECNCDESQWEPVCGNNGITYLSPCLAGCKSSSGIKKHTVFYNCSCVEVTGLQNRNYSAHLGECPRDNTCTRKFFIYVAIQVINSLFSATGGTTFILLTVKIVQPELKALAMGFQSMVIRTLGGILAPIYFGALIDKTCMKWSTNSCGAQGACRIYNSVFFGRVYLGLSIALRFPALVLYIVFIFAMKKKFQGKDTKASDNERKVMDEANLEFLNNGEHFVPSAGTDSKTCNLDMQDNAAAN

Row | OATP1B3 Uptake (Percent of no transporter control cell) [%] | SMILES
1 | 490 | C[C@]12CC[C@@H]3c4ccc(O)cc4CC[C@H]3[C@@H]1CC[C@@H]2O [Estradiol, reference compound]

What follows are compounds tested against recombinant human ASK1 protein (Homo sapiens (Human), UniProt Q99683) (assay: ASK1 kinase activity inhibition assay (radiometric 33P incorporation into MBP)). Details: Table 3; 20 μM MBP, 10 μM 33P-ATP.
Sequence of recombinant human ASK1 protein (Q99683 whole entry): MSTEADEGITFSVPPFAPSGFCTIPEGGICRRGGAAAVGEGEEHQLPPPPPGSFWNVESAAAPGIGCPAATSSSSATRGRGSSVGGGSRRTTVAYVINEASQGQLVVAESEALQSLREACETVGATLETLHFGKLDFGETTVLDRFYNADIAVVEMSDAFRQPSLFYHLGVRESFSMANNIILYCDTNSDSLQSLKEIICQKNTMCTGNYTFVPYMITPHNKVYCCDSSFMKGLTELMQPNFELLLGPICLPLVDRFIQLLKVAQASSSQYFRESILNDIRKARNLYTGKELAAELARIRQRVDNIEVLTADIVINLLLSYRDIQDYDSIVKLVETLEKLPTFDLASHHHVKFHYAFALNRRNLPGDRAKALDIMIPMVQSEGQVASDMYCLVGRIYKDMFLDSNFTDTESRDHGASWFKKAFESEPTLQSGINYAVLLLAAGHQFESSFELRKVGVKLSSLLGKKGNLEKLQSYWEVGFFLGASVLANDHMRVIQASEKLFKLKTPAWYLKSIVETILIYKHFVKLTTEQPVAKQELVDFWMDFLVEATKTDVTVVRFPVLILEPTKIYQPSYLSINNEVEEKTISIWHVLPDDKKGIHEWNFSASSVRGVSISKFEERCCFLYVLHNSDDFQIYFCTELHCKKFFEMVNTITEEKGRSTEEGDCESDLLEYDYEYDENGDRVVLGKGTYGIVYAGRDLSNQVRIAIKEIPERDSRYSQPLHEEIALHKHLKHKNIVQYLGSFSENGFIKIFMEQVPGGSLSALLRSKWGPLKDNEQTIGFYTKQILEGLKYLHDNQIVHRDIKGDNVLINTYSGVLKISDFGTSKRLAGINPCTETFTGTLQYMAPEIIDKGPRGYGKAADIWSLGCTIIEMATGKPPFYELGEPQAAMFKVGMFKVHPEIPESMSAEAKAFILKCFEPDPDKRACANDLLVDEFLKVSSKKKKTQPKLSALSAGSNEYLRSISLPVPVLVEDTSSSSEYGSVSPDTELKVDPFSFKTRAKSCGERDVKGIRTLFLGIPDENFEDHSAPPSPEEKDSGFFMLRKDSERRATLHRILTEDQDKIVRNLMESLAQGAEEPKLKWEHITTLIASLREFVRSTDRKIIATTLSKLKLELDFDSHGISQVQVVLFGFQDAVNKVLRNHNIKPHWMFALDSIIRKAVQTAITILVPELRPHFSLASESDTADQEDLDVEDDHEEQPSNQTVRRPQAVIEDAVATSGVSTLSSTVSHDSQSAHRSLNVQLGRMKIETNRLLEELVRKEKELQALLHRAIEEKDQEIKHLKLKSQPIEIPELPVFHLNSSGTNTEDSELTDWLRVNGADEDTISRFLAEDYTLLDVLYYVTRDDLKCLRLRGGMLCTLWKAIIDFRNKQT
Type: biochemical
Procedure: ASK1 Kinase Activity Inhibition Assay
Inhibition of ASK1 kinase activity was determined radiometrically using 33P substrate incorporation (Reaction Biology Corp., Malvern, Pa.). Briefly, recombinant human ASK1 protein, 20 μM substrate (myelin basic protein (MBP)), and compound (diluted from DMSO stock to give 1% final DMSO) were incubated in Base Reaction buffer (20 mM Hepes (pH 7.5), 10 mM MgCl2, 1 mM EGTA, 0.02% Brij35, 0.02 mg/mL BSA, 0.1 mM Na3VO4, 2 mM DTT, 1% DMSO) at room temperature for 20 minutes. The reaction was initiated by addition of 10 μM 33P-ATP (specific activity […]). The reaction was then allowed to proceed for 2 hours at room temperature. Upon reaction termination, the mixture was spotted on P81 exchange paper and kinase activity by incorporation of 33P into MBP substrate was detected by filter-binding method.

Row | SMILES | IC50 [nM]
2 | CC(C)n1cnnc1-c1cccc(N2Cc3ccc(-c4cc(F)cc(C(=O)O)c4F)cc3C2=O)n1 [Compound 97, 2,5-Difluoro-3-(2-(6-(4-isopropyl-4H-1,2,4-triazol-3-yl)pyridin-2-yl)-3-oxoisoindolin-5-yl) Benzoic Acid] | 4.7
3 | CC(C)n1cnnc1-c1cccc(N2Cc3ccc(-c4ccc(F)c(C(=O)O)c4)cc3C2=O)n1 [Compound 3, 2-Fluoro-5-(2-(6-(4-isopropyl-4H-1,2,4-triazol-3-yl)pyridin-2-yl)-3-oxoisoindolin-5-yl)benzoic Acid] | 4.9
4 | CC(C)n1cnnc1-c1cccc(N2Cc3ccc(-c4ccc(C5(C(=O)O)CC5)cc4)cc3C2=O)n1 [Compound 86, 1-(4-(2-(6-(4-Isopropyl-4H-1,2,4-triazol-3-yl)pyridin-2-yl)-3-oxoisoindolin-5-yl)phenyl)cyclopropane-1-carboxylic Acid] | 1.83
5 | O=C(O)CC1CCN(c2ccc3c(c2)C(=O)N(c2cccc(-c4nncn4C4CC4)n2)C3)CC1 [Compound 130, 2-(1-(2-(6-(4-Cyclopropyl-4H-1,2,4-triazol-3-yl)pyridin-2-yl)-3-oxoisoindolin-5-yl)piperidin-4-yl)acetic Acid] | 19.2
6 | CC(C)n1cnnc1-c1cccc(N2Cc3ccc(-c4ccc(CO)c(C(=O)O)c4)cc3C2=O)n1 [Compound 35, 2-(Hydroxymethyl)-5-(2-(6-(4-isopropyl-4H-1,2,4-triazol-3-yl)pyridin-2-yl)-3-oxoisoindolin-5-yl)benzoic Acid] | 4
7 | Cc1cc(-c2ccc3c(c2)C(=O)N(c2cccc(-c4nncn4C(C)C)n2)C3)ccc1C(=O)O [Compound 73, 4-(2-(6-(4-isopropyl-4H-1,2,4-triazol-3-yl)pyridin-2-yl)-3-oxoisoindolin-5-yl)-2-methyl] | 14.3
8 | COC(=O)c1ccc(F)c(-c2ccc3c(c2)C(=O)N(c2cccc(-c4nncn4C(C)C)n2)C3)c1 [Compound 100, Methyl 4-fluoro-3-(2-(6-(4-isopropyl-4H-1,2,4-triazol-3-yl)pyridin-2-yl)-3-oxoisoindolin-5-yl)benzoate] | 6.57
9 | O=C1c2cc(-c3ccc(C4(C(=O)O)CC4)cc3)ccc2CN1c1cccc(-c2nncn2C2CC2)n1 [Compound 87, 1-(4-(2-(6-(4-Cyclopropyl-4H-1,2,4-triazol-3-yl)pyridin-2-yl)-3-oxoisoindolin-5-yl)phenyl)cyclopropane-1-carboxylic Acid] | 2.5
10 | O=C(O)c1cccc(-c2ccc3c(c2)C(=O)N(c2cccc(-c4nncn4C4CC4)n2)C3)c1 [Compound 20, 3-(2-(6-(4-Cyclopropyl-4H-1,2,4-triazol-3-yl)pyridin-2-yl)-3-oxoisoindolin-5-yl)benzoic Acid] | 5.3
11 | CC(C)n1cnnc1-c1cccc(N2Cc3ccc(-c4ccc(C(=O)O)c(CO)c4)cc3C2=O)n1 [Compound 83, 2-(Hydroxymethyl)-4-(2-(6-(4-isopropyl-4H-1,2,4-triazol-3-yl)pyridin-2-yl)-3-oxoisoindolin-5-yl)benzoic Acid] | 6.2
12 | CC(C)n1cnnc1-c1cccc(N2Cc3ccc(-c4ccc(C(C)(C)C(=O)O)cc4F)cc3C2=O)n1 [Compound 41, 2-(3-Fluoro-4-(2-(6-(4-isopropyl-4H-1,2,4-triazol-3-yl)pyridin-2-yl)-3-oxoisoindolin-5-yl)phenyl)-2-methylpropanoic Acid] | 4.7
13 | CC(C)n1cnnc1-c1cccc(N2Cc3ccc(-c4cccc(-c5nn[nH]n5)c4)cc3C2=O)n1 [Compound 37, 6-(3-(2H-Tetrazol-5-yl)phenyl)-2-(6-(4-isopropyl-4H-1,2,4-triazol-3-yl)pyridin-2-yl)isoindolin-1-one] | 2.8
14 | CC(C)n1cnnc1-c1cccc(N2Cc3ccc(-c4ccc(C(=O)O)c(Cl)c4)cc3C2=O)n1 [Compound 72, 2-Chloro-4-(2-(6-(4-isopropyl-4H-1,2,4-triazol-3-yl)pyridin-2-yl)-3-oxoisoindolin-5-yl)benzoic Acid] | 4.7
15 | CC(C)n1cnnc1-c1cccc(N2Cc3ccc([C@H]4CC[C@@H](C(=O)O)CC4)cc3C2=O)n1 [Compound 127, cis-4-(2-(6-(4-Isopropyl-4H-1,2,4-triazol-3-yl)pyridin-2-yl)-3-oxoisoindolin-5-yl)cyclohexane-1-carboxylic acid] | 14.6

Results, then the compound that gave them:

Row | IC50 [nM] | SMILES
16 | 4.9 | COc1ccc(-c2ccc3c(c2)C(=O)N(c2cccc(-c4nncn4C(C)C)n2)C3)cc1C(=O)O [Compound 96, 5-(2-(6-(4-Isopropyl-4H-1,2,4-triazol-3-yl)pyridin-2-yl)-3-oxoisoindolin-5-yl)-2-methoxybenzoic Acid]
17 | 5.7 | Cc1cc(C(=O)O)ccc1-c1ccc2c(c1)C(=O)N(c1cccc(-c3nncn3C(C)C)n1)C2 [Compound 74, 4-(2-(6-(4-Isopropyl-4H-1,2,4-triazol-3-yl)pyridin-2-yl)-3-oxoisoindolin-5-yl)-3-methylbenzoic Acid]
18 | 1.9 | CC(C)n1cnnc1-c1cccc(N2Cc3ccc(-c4cnc(N)c(C(=O)O)c4)cc3C2=O)n1 [Compound 117, 2-Amino-5-(2-(6-(4-isopropyl-4H-1,2,4-triazol-3-yl)pyridin-2-yl)-3-oxoisoindolin-5-yl) Nicotinic Acid]
19 | 12.4 | O=C(O)c1ccc(F)c(-c2ccc3c(c2)C(=O)N(c2cccc(-c4nncn4C4CC4)n2)C3)c1 [Compound 93, 3-(2-(6-(4-Cyclopropyl-4H-1,2,4-triazol-3-yl)pyridin-2-yl)-3-oxoisoindolin-5-yl)-4-fluorobenzoic Acid]
20 | 4.6 | Cc1cc(F)c(C(=O)O)cc1-c1ccc2c(c1)C(=O)N(c1cccc(-c3nncn3C(C)C)n1)C2 [Compound 79, 2-Fluoro-5-(2-(6-(4-isopropyl-4H-1,2,4-triazol-3-yl)pyridin-2-yl)-3-oxoisoindolin-5-yl)-4-methylbenzoic Acid]
21 | 13.4 | CC(C)n1cnnc1-c1cccc(N2Cc3ccc([C@H]4CC[C@H](C(=O)O)CC4)cc3C2=O)n1 [Compound 126, trans-4-(2-(6-(4-Isopropyl-4H-1,2,4-triazol-3-yl)pyridin-2-yl)-3-oxoisoindolin-5-yl)cyclohexane-1-carboxylic acid]
22 | 4.6 | COc1ncc(-c2ccc3c(c2)C(=O)N(c2cccc(-c4nncn4C(C)C)n2)C3)cc1C(=O)O [Compound 116, 5-(2-(6-(4-Isopropyl-4H-1,2,4-triazol-3-yl)pyridine-2-yl)-3-oxoisoindolin-5-yl)-2-methoxynicotinic Acid]
23 | 3.4 | CC(C)n1cnnc1-c1cccc(N2Cc3ccc(-c4cccc(C(=O)O)c4O)cc3C2=O)n1 [Compound 95, 2-Hydroxy-3-(2-(6-(4-isopropyl-4H-1,2,4-triazol-3-yl)pyridin-2-yl)-3-oxoisoindolin-5-yl) benzoic Acid]
24 | 8.4 | O=C1c2cc(-c3cccc(C4(C(=O)O)CC4)c3)ccc2CN1c1cccc(-c2nncn2C2CC2)n1 [Compound 106, 1-(3-(2-(6-(4-Cyclopropyl-4H-1,2,4-triazol-3-yl)pyridin-2-yl)-3-oxoisoindolin-5-yl)phenyl)cyclopropane-1-carboxylic Acid]
25 | 8.9 | COc1cc(N)c(-c2ccc3c(c2)C(=O)N(c2cccc(-c4nncn4C(C)C)n2)C3)cc1C(=O)O [Compound 66, 4-Amino-5-(2-(6-(4-isopropyl-4H-1,2,4-triazol-3-yl)pyridin-2-yl)-3-oxoisoindolin-5-yl)-2-methoxybenzoic Acid]
26 | 6.6 | CC(C)n1cnnc1-c1cccc(N2Cc3ccc(N4CCC(CC(=O)O)CC4)cc3C2=O)n1 [Compound 129, 2-(1-(2-(6-(4-Isopropyl-4H-1,2,4-triazol-3-yl)pyridin-2-yl)-3-oxoisoindolin-5-yl)piperidin-4-yl)acetic Acid]

These compounds were tested against human OATP1B1 transporter (Homo sapiens (Human), UniProt Q9Y6L6) (assay: Transporter mediated cellular uptake, OATP1B1-expressing HEK293). Details: HEK293 stably expressing human OATP1B1, 37° C., 0.5 minutes.
Sequence of human OATP1B1 transporter (Q9Y6L6 whole entry): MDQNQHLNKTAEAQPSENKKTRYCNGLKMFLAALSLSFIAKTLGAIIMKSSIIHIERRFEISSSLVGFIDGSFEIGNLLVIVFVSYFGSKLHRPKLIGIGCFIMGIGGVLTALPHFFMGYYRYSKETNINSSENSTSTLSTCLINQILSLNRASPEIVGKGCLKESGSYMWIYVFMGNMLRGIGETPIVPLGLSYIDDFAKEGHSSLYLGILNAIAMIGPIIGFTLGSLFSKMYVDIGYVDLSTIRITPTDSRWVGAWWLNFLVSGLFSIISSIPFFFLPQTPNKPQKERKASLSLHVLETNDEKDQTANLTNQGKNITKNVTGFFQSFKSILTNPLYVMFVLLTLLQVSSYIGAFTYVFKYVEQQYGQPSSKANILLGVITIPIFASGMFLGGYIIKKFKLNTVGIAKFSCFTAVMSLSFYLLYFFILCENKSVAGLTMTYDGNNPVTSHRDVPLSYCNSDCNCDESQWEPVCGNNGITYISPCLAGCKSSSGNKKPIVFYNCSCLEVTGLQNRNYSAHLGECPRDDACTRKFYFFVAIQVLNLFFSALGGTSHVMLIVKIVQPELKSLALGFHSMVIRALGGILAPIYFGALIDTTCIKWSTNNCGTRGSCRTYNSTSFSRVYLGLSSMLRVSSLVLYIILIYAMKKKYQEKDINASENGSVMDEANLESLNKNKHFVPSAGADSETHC
Type: in vitro ADME
Procedure: as §1, §2

Row | SMILES | OATP1B1 Uptake (Percent of no transporter control cell) [%]
27 | C[C@]12CC[C@@H]3c4ccc(OS(=O)(=O)O)cc4CC[C@H]3[C@@H]1CCC2=O [Estrone 3-sulphate, reference compound] | 685

Source: patent US10654833B2, “ASK1 isoindolin-1-one inhibitors and methods of use thereof” (Hepatikos Therapeutics, LLC, priority 2018, dated 2020)
